Reference: US8252774B2, “5-azaindole bisphosphonates” (Isis Innovation Ltd., priority 2008, dated 2012)

Assays:
[1] = HAP affinity: chromatographic profiling on hydroxyapatite column (FPLC); assay type: physicochemical; settings: phosphate buffer gradient 1 mM up to 1000 mM, pH 6.8, determined in triplicate, longer retention = higher mineral affinity
[2] = target: T1, human farnesyl pyrophosphate synthase (FPPS) (Homo sapiens, UniProt P14324); assay: FPPS inhibition in vitro; assay type: biochemical; settings: recombinant human FPPS
T1 construct: made in house
T1 sequence (P14324 67-419 limits assumed): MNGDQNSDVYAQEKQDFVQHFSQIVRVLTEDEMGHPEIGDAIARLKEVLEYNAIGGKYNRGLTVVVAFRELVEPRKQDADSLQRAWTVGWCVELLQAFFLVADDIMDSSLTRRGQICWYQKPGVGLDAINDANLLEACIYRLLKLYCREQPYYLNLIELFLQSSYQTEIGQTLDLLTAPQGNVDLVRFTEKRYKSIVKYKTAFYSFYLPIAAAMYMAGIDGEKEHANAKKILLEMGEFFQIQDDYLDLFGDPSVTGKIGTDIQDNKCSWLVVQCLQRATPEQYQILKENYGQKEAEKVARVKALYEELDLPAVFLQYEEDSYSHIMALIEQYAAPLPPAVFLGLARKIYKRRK

| SMILES | Retention time [1] | IC50 ([2]; after pre-incubation) | Ki ([2]; final inhibition constant) |
| --- | --- | --- | --- |
| O=P(O)(O)C(O)(Cc1cnc2ccccn12)P(=O)(O)O [Minodronate] | 10.33 min | – | – |
| O=P(O)(O)C(O)(Cn1ccnc1)P(=O)(O)O [Zoledronate] | 12.53 min | – | – |
| O=P(O)(O)C(O)(Cc1cccnc1)P(=O)(O)O [Risedronate] | 9.97 min | – | – |
| O=P(O)(O)C(Cc1c[nH]c2ccncc12)P(=O)(O)O [5-azaindol-3-yl-ethyl-bisphosphonic acid] | 6.3 min | 6.6 nM | 0.6 nM |
